From ChEMBL document CHEMBL1201862, “PubChem BioAssay data set” (2004)
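Each compound was tested at five concentrations against cells in 96-well plates for 48 hours. The concentration for 50% growth inhibition is given as GI50.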 The source made the active and inactive calls. Rule as the data show it: active = GI50 up to about 1.1 µM and inactive = higher.

Columns and labels:
Assay in all cases: inhibition of tumour cell growth, NCI panel, 48 h
SF-539 = system: SF-539
OVCAR-4 = system: OVCAR-4
DU-145 = system: DU-145
SK-MEL-28 = system: SK-MEL-28
COLO 205 = system: COLO 205
NCI/ADR-RES = system: NCI/ADR-RES
SK-OV-3 = system: SK-OV-3
SK-MEL-2 = system: SK-MEL-2
SNB-75 = system: SNB-75
HCT-116 = system: HCT-116
SF-295 = system: SF-295
CCRF-CEM = system: CCRF-CEM
OVCAR-8 = system: OVCAR-8
SW-620 = system: SW-620
SK-MEL-5 = system: SK-MEL-5
T47D = system: T47D
SN12C = system: SN12C
SR = system: SR
HOP-92 = system: HOP-92
NCI-H226 = system: NCI-H226

SMILES	GI50 (SF-539)	GI50 (OVCAR-4)	GI50 (DU-145)	GI50 (SK-MEL-28)	GI50 (COLO 205)	GI50 (NCI/ADR-RES)	GI50 (SK-OV-3)	GI50 (SK-MEL-2)	GI50 (SNB-75)	GI50 (HCT-116)	GI50 (SF-295)	GI50 (CCRF-CEM)	GI50 (OVCAR-8)	GI50 (SW-620)	GI50 (SK-MEL-5)	GI50 (T47D)	GI50 (SN12C)	GI50 (SR)	GI50 (HOP-92)	GI50 (NCI-H226)
Clc1cc(OCC23CC4CC(CC(C4)C2)C3)nc(OCC23CC4CC(CC(C4)C2)C3)n1	> 100 µM (inactive)	> 100 µM (inactive)	> 100 µM (inactive)	> 100 µM (inactive)	> 100 µM (inactive)	> 100 µM (inactive)	> 100 µM (inactive)	> 100 µM (inactive)	> 100 µM (inactive)	> 100 µM (inactive)	41.7 µM (inactive)	> 100 µM (inactive)	> 100 µM (inactive)	> 100 µM (inactive)	> 100 µM (inactive)	> 100 µM (inactive)	> 100 µM (inactive)	> 100 µM (inactive)	–	–
CSc1nc(O)c(C#N)c(-c2ccc(Cl)cc2)n1	> 100 µM (inactive)	> 100 µM (inactive)	> 100 µM (inactive)	> 100 µM (inactive)	> 100 µM (inactive)	> 100 µM (inactive)	> 100 µM (inactive)	> 100 µM (inactive)	93.8 µM (inactive)	72.1 µM (inactive)	> 100 µM (inactive)	61 µM (inactive)	> 100 µM (inactive)	> 100 µM (inactive)	> 100 µM (inactive)	43.7 µM (inactive)	> 100 µM (inactive)	–	24.8 µM (inactive)	> 100 µM (inactive)
CCO/C(=N/S(=O)(=O)C(F)(F)F)N(C(C)C)C(C)C	47 µM (inactive)	> 100 µM (inactive)	> 100 µM (inactive)	> 100 µM (inactive)	> 100 µM (inactive)	> 100 µM (inactive)	–	> 100 µM (inactive)	–	> 100 µM (inactive)	–	> 100 µM (inactive)	> 100 µM (inactive)	> 100 µM (inactive)	> 100 µM (inactive)	> 100 µM (inactive)	> 100 µM (inactive)	–	> 100 µM (inactive)	–
NCCCNCCCCN1CC1	0.836 µM (active)	0.259 µM (active)	2.12 µM (inactive)	7.76 µM (inactive)	1.02 µM (active)	3.33 µM (inactive)	2.25 µM (inactive)	1.69 µM (inactive)	0.372 µM (active)	6.92 µM (inactive)	20 µM (inactive)	0.836 µM (active)	2.07 µM (inactive)	2.31 µM (inactive)	2.25 µM (inactive)	0.265 µM (active)	3.77 µM (inactive)	–	0.745 µM (active)	8.49 µM (inactive)
CCc1nc(N)nc(N)c1-c1ccc(Cl)c(N=[N+]=[N-])c1	4.65 µM (inactive)	22.4 µM (inactive)	12.4 µM (inactive)	15.4 µM (inactive)	11.9 µM (inactive)	6.31 µM (inactive)	30.2 µM (inactive)	17.4 µM (inactive)	18.8 µM (inactive)	1.19 µM (inactive)	2.84 µM (inactive)	–	–	2.42 µM (inactive)	3.74 µM (inactive)	25.3 µM (inactive)	9.38 µM (inactive)	–	10.7 µM (inactive)	28.4 µM (inactive)
COC1C(O)C(C)OC(OC2C(Oc3cccc4c(O)c5c(=O)oc6ccc(C)c7c(=O)oc(c34)c5c67)OC(C)C3O[C@H](c4ccccc4)OC32)C1O (some centres undefined)	0.0746 µM (active)	1.3 µM (inactive)	0.193 µM (active)	0.319 µM (active)	–	2.12 µM (inactive)	0.533 µM (active)	0.824 µM (active)	0.583 µM (active)	–	0.103 µM (active)	–	0.034 µM (active)	0.0631 µM (active)	0.131 µM (active)	0.196 µM (active)	0.0578 µM (active)	–	1.23 µM (inactive)	0.0682 µM (active)
